Data on 7 compounds can be found in BindingDB's records for doi:10.1124/jpet.301.1.37 (National Institutes of Health, 2002).

Values joined by “and” are separate entries in the source; they are usually repeats but may differ in a detail not shown here. Identical values can stand only once.

The target of this test is T1, VIP peptides (Cavia porcellus, UniProt P04566).
T1 sequence (P04566 whole entry): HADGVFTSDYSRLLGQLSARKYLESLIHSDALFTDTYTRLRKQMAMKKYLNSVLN
What is called Ki is the dissociation constant of the complex between target and ligand, obtained from inhibition or displacement. `CC[C@H](C)[C@H](NC(=O)[C@H](CO)NC(=O)[C@H](CC(N)=O)NC(=O)[C@H](CC(C)C)NC(=O)[C@H](Cc1ccc(O)cc1)NC(=O)[C@H](CCCCN)NC(=O)[C@H](CCCCN)NC(=O)[C@@H](NC(=O)[C@H](C)NC(=O)[C@H](CCSC)NC(=O)[C@H](CCC(N)=O)NC(=O)[C@H](CCCCN)NC(=O)[C@H](CCCN=C(N)N)NC(=O)[C@H](CC(C)C)NC(=O)[C@H](CCCN=C(N)N)NC(=O)[C@@H](NC(=O)[C@H](Cc1ccc(O)cc1)NC(=O)[C@@H](CC(N)=O)NC(=O)[C@H](CC(=O)O)NC(=O)[C@@H](NC(=O)[C@H](Cc1ccccc1)NC(=O)[C@@H](NC(=O)[C@H](C)NC(=O)[C@H](CC(=O)O)NC(=O)[C@H](CO)NC(=O)[C@@H](N)Cc1cnc[nH]1)C(C)C)[C@@H](C)O)[C@@H](C)O)C(C)C)C(=O)N[C@@H](CC(C)C)C(=O)N[C@@H](CC(N)=O)C(N)=O` [VIP [D-Asn9]] showed an inhibition constant (Ki) of 2.8 nM. “H-HSDAAFTDNYTRLRKQMAVKKYLNSILN-NH2 [VIP Ala5]” returned a Ki of 34.7 nM.

“H-HSDAVFTDNYTRLRKQMAVKKYLNSALN-NH2 [VIP Ala26]”: the Ki was 4.3 nM and 12.3 nM. As for “H-HSDAVFTDNYTRLRKQMAVKKYLASILN-NH2 [VIP Ala24]”, the figure is 8.9 nM; as for `CC[C@H](C)[C@H](NC(=O)[C@H](CO)NC(=O)[C@H](CC(N)=O)NC(=O)[C@H](CC(C)C)NC(=O)[C@H](Cc1ccc(O)cc1)NC(=O)[C@H](CCCCN)NC(=O)[C@H](CCCCN)NC(=O)[C@@H](NC(=O)[C@H](C)NC(=O)[C@@H](CCSC)NC(=O)[C@H](CCC(N)=O)NC(=O)[C@H](CCCCN)NC(=O)[C@H](CCCN=C(N)N)NC(=O)[C@H](CC(C)C)NC(=O)[C@H](CCCN=C(N)N)NC(=O)C(NC(=O)[C@H](Cc1ccc(O)cc1)NC(=O)[C@H](CC(N)=O)NC(=O)[C@H](CC(=O)O)NC(=O)[C@@H](NC(=O)[C@H](Cc1ccccc1)NC(=O)[C@@H](NC(=O)[C@H](C)NC(=O)[C@H](CC(=O)O)NC(=O)[C@H](CO)NC(=O)[C@@H](N)Cc1cnc[nH]1)C(C)C)[C@@H](C)O)[C@@H](C)O)C(C)C)C(=O)N[C@@H](CC(C)C)C(=O)N[C@@H](CC(N)=O)C(N)=O` (stereo partly drawn) [VIP [D- Met 17]], 33.1 nM; as for `CC[C@H](C)[C@H](NC(=O)[C@@H](CO)NC(=O)[C@H](CC(N)=O)NC(=O)[C@H](CC(C)C)NC(=O)[C@H](Cc1ccc(O)cc1)NC(=O)[C@H](CCCCN)NC(=O)[C@H](CCCCN)NC(=O)[C@@H](NC(=O)[C@H](C)NC(=O)[C@H](CCSC)NC(=O)[C@H](CCC(N)=O)NC(=O)[C@H](CCCCN)NC(=O)[C@H](CCCN=C(N)N)NC(=O)[C@H](CC(C)C)NC(=O)[C@H](CCCN=C(N)N)NC(=O)[C@@H](NC(=O)[C@H](Cc1ccc(O)cc1)NC(=O)[C@H](CC(N)=O)NC(=O)[C@H](CC(=O)O)NC(=O)[C@@H](NC(=O)[C@H](Cc1ccccc1)NC(=O)[C@@H](NC(=O)[C@H](C)NC(=O)[C@H](CC(=O)O)NC(=O)[C@H](CO)NC(=O)[C@@H](N)Cc1cnc[nH]1)C(C)C)[C@@H](C)O)[C@@H](C)O)C(C)C)C(=O)N[C@@H](CC(C)C)C(=O)N[C@@H](CC(N)=O)C(N)=O` [VIP [D-Ser25]], 43.6 nM. `CC[C@H](C)[C@H](NC(=O)[C@H](CO)NC(=O)[C@H](CC(N)=O)NC(=O)[C@H](CC(C)C)NC(=O)[C@H](Cc1ccc(O)cc1)NC(=O)[C@H](CCCCN)NC(=O)[C@H](CCCCN)NC(=O)[C@@H](NC(=O)[C@H](C)NC(=O)[C@H](CCSC)NC(=O)[C@H](CCC(N)=O)NC(=O)[C@H](CCCCN)NC(=O)[C@H](CCCN=C(N)N)NC(=O)[C@H](CC(C)C)NC(=O)[C@H](CCCN=C(N)N)NC(=O)[C@@H](NC(=O)[C@H](Cc1ccc(O)cc1)NC(=O)[C@H](CC(N)=O)NC(=O)[C@H](CC(=O)O)NC(=O)[C@@H](NC(=O)[C@H](Cc1ccccc1)NC(=O)[C@@H](NC(=O)[C@H](C)NC(=O)[C@H](CC(=O)O)NC(=O)[C@H](CO)NC(=O)[C@@H](N)Cc1cnc[nH]1)C(C)C)[C@@H](C)O)[C@@H](C)O)C(C)C)C(=O)N[C@H](CC(C)C)C(=O)N[C@@H](CC(N)=O)C(N)=O` [VIP [D-Leu27]] yielded a Ki of 5 nM.
